In patent US20120252803A1, “COMPOSITION AND METHOD FOR CONTROLLING ARTHROPOD PESTS” (SUMITOMO CHEMICAL COMPANY, LIMITED, priority 2009, published 2012):

Legend:
[1] = system: Common cutworm (Spodoptela litura); experiment: Test Example 2: pesticidal effect of artificial diet irrigation treatment on Common cutworm; assay type: in vivo; details: artificial diet irrigated with 2 mL test solution, fourth instar larvae, after 6 days
[2] = system: Common cutworm (Spodoptela litura); experiment: Test Example 1: pesticidal effect of artificial diet irrigation treatment on Common cutworm; assay type: in vivo; details: artificial diet irrigated with 2 mL test solution, fourth instar larvae, after 6 days
[3] = composition of the compound and esfenvalerate, Table 45
[4] = composition of the compound and fenpropathrin, Table 46
[5] = composition of the compound and esfenvalerate, Table 43
[6] = composition of the compound and fenpropathrin, Table 44

| Structure (SMILES) | pesticidal efficacy against Common cutworm (Spodoptela litura) [1, 3] | pesticidal efficacy against Common cutworm (Spodoptela litura) [1, 4] | pesticidal efficacy against Common cutworm (Spodoptela litura) [2, 5] | pesticidal efficacy against Common cutworm (Spodoptela litura) [2, 6] |
| --- | --- | --- | --- | --- |
| CC(C)COc1cnccc1-c1nc2cc(C(F)(F)F)ccc2o1 [Compound 116, 2-(3-isobutoxypyridin-4-yl)-5-(trifluoromethyl)benzoxazole] | high pesticidal efficacy | high pesticidal efficacy |  |  |
| CSc1cnccc1-c1nc2cc(C(F)(F)F)cnc2o1 [Compound 146, 2-(3-methylthiopyridin-4-yl)-6-(trifluoromethyl)oxazolo[5,4-b]pyridine] |  |  | high pesticidal efficacy | high pesticidal efficacy |
| FC(F)(F)c1ccc2oc(-c3ccncc3-c3cccnc3)nc2c1 [Compound 128, 4-(5-trifluoromethyl-benzoxazole-2-yl)-[3,3′]bipyridinyl] |  |  | high pesticidal efficacy | high pesticidal efficacy |
| FC(F)(F)COc1cnccc1-c1nc2cc(C(F)(F)F)cnc2o1 [Compound 163] | high pesticidal efficacy | high pesticidal efficacy |  |  |
| FC(F)(F)c1ccc2oc(-c3ccncc3Cl)nc2c1 [Compound 18, 2-(3-chloropyridin-4-yl)-5-(trifluoromethyl)benzoxazole] |  |  | high pesticidal efficacy | high pesticidal efficacy |
| CC(C)(C)COc1cnccc1-c1nc2cc(C(F)(F)F)ccc2o1 [Compound 117, 2-[3-(2,2-dimethylpropoxy)pyridin-4-yl]-5-(trifluoromethyl)benzoxazole] | high pesticidal efficacy | high pesticidal efficacy |  |  |
| CC(C)Oc1cnccc1-c1nc2cc(C(F)(F)F)ccc2o1 [Compound 70, 2-(3-isopropoxypyridin-4-yl)-5-(trifluoromethyl)benzoxazole] |  |  | high pesticidal efficacy | high pesticidal efficacy |
| FC(F)(F)COc1cnccc1-c1nc2cc(C(F)(F)F)ccc2o1 [Compound 39, 2-[3-(2,2,2-trifluoroethyl)oxypyridin-4-yl]-5-(trifluoromethyl)benzoxazole] | high pesticidal efficacy | high pesticidal efficacy |  |  |
| CCc1cnccc1-c1nc2cc(C(F)(F)F)cnc2o1 [Compound 143, 2-(3-ethylpyridin-4-yl)-6-(trifluoromethyl)oxazolo[5,4-b]pyridine] |  |  | high pesticidal efficacy | high pesticidal efficacy |
| CCc1cnccc1-c1nc2cc(OC(F)(F)F)ccc2o1 [Compound 109, 2-(3-ethylpyridin-4-yl)-5-(trifluoromethoxy)benzoxazole] |  |  | high pesticidal efficacy | high pesticidal efficacy |
| FC(F)(F)c1cnc2oc(-c3ccncc3Cl)nc2c1 [Compound 139, 2-(3-chloropyridin-4-yl)-6-(trifluoromethyl)oxazolo[5,4-b]pyridine] |  |  | high pesticidal efficacy | high pesticidal efficacy |
| FC(F)(F)Sc1ccc2oc(-c3ccncc3Cl)nc2c1 [Compound 77, 2-(3-chloropyridin-4-yl)-5-(trifluoromethylthio)benzoxazole] |  |  | high pesticidal efficacy | high pesticidal efficacy |
